{
  "source": "paper PMC2151243",
  "about": "(British Journal of Cancer, 1998)",
  "key": {"[1]": {"system": "Sheep antiserum to ZD1694 (S37B14)", "experiment": "Radioimmunoassay: cross-reaction of S37B14 antiserum", "type": "binding", "conditions": "for Cross-reaction of S37B14 antiserum (%): relative amount of ZD1694 and cross-reactant required to inhibit antibody binding of radiolabel by 50%", "source_text": "(§1) British Joumal of Cancer (1998) 77(2), 221-226 ? […] Tomudex is now available for the treat- ment of advanced colorectal cancer in several countries. […] The limit of detection of this assay for plasma was 0.2 g1M when a solid-phase extraction was used. […] Separation of polyglutamated metabo- lites by HPLC was followed by quantitation in fractions using radiochemical analysis (Jackman et al, 1991c; Gibson et al, 1993) or by measuring inhibition of TS (Sikora et al, 1988). […] The dog was chosen as an additional model, because, unlike mice, plasma levels of thymidine are low and this species is much more sensitive to the effects of TS inhibitors than rodents. […] Acetonitrile was from Fisons, Dextran T70 from Pharmacia and all other chemicals from Sigma. Solutions were prepared with deionized water. […] Stock solutions (10 mM) were prepared in 0.15 M sodium bicar- bonate and stored at -20?C. For the mouse studies, the drug was formulated in 0.05 M sodium bicarbonate and the pH was adjusted to 8.5-9.0. Radioimmunoassay The assay diluent was 0.05 M phosphate buffer pH 7.4, containing 1 g 1-' gelatin and 6 g 1-' sodium chloride (PBSG). Initially, all dilutions and dispensing of standards and samples were made with a Dilutrend diluter, but a Multiprobe (Canberra Packard) auto- mated liquid-handling system was later programmed to perform these steps in the assay. […] Samples were assayed at three appropriate dilutions to ensure that the results of at least two dilutions fell on the linear portion of the stan- dard curve, and samples were reassayed at different dilutions if necessary. The antiserum was diluted in PBSG so that approxi- mately 40% of total radioactivity was bound (Bo) to antibody. This dilution was previously determined from an antiserum dilution curve and was 1:300 to 1:500 depending on the batch of radiolabel used. […] Diluted standards and samples (0.1 ml) were added in duplicate to numbered LP3 tubes (Luckham) or to deep-well blocks (Beckman) with 0.3 ml of assay diluent, 0.1 ml of diluted anti- serum and 0.1 ml of diluted label, mixed and left to stand in iced water for 1 h. Each assay included total counts and non-specific- binding tubes, containing only the radiolabel and buffer, and zero- standard-binding tubes (Bo), which contained only radiolabel and antiserum. The antibody-bound radiolabel was separated from unbound radiolabel by the addition of ice-cold dextran-coated charcoal [2.5% (w/v) activated charcoal (Sigma) coated with 0.25% (w/v) Dextran T-70 (Pharmacia)] to all but the total-counts tubes for 10 min. After centrifugation at 1000 g for 10 min at 4?C, 0.5 ml aliquots of supematant were taken from each assay tube for scintillation counting in 4.0 ml of Ultima gold scintillant (Canberra-Packard). […] The radioimmunoassays were carried out at the Institute of Cancer Research. […] The limit of detection for 6-8 x 10^6 cells is 0.05 µM intracellular concentration. […] Plasma was immediately separated from the; approximately blood by microcentrifugation and stored at -20?C until assayed. Liver and kidney samples were immediately frozen on solid carbon dioxide. Gut epithelium samples were obtained 1 day after drug treatment."}, "[2]": {"biological_target": "Thymidylate synthase (TS; EC 2.1.1.45), mouse enzyme", "conditions": "ref Jackman et al, 1991a, Gibson et al, 1993, read-out: Kj for mouse enzyme; cited from earlier work"}, "L1210 cells": {"system": "L1210 cells", "parameters": "method as in Jackman et al, 1995c", "conditions": "L1210, 0.1 µM, 24 h; ref Jackman et al, 1995c; cited from earlier work"}, "[3]": {"system": "thymidine salvage competent models", "parameters": "method as in Jackman et al, 1991a and b", "conditions": "repeated treatment over 5 days; ref Jackman et al, 1991a and b; cited from earlier work"}, "[4]": {"parameters": "method as in Judson et al, 1996", "conditions": "man, ref Judson et al, 1996, cited from earlier work"}, "[5]": {"experiment": "Pharmacokinetic studies in dogs: plasma and tissue levels by radioimmunoassay", "type": "in vivo, Alderley Park Beagle dogs", "source_text": "British Joumal of Cancer (1998) 77(2), 221-226 ? […] Tomudex is now available for the treat- ment of advanced colorectal cancer in several countries. […] The limit of detection of this assay for plasma was 0.2 g1M when a solid-phase extraction was used. […] Separation of polyglutamated metabo- lites by HPLC was followed by quantitation in fractions using radiochemical analysis (Jackman et al, 1991c; Gibson et al, 1993) or by measuring inhibition of TS (Sikora et al, 1988). […] The dog was chosen as an additional model, because, unlike mice, plasma levels of thymidine are low and this species is much more sensitive to the effects of TS inhibitors than rodents. […] Acetonitrile was from Fisons, Dextran T70 from Pharmacia and all other chemicals from Sigma. Solutions were prepared with deionized water. […] Stock solutions (10 mM) were prepared in 0.15 M sodium bicar- bonate and stored at -20?C. For the mouse studies, the drug was formulated in 0.05 M sodium bicarbonate and the pH was adjusted to 8.5-9.0. Radioimmunoassay The assay diluent was 0.05 M phosphate buffer pH 7.4, containing 1 g 1-' gelatin and 6 g 1-' sodium chloride (PBSG). […] The antiserum was diluted in PBSG so that approxi- mately 40% of total radioactivity was bound (Bo) to antibody. This dilution was previously determined from an antiserum dilution curve and was 1:300 to 1:500 depending on the batch of radiolabel used. […]"}, "[6]": {"parameters": "method as in Jackman et al, 1995a", "conditions": "mice, ref Jackman et al, 1995a, cited from earlier work"}, "[7]": {"parameters": "method as in Jodrell et al, 1991", "conditions": "mice, 100 mg kg-1, HPLC; ref Jodrell et al, 1991; cited from earlier work"}, "L1210:RD1694 cells": {"system": "L1210:RD1694 cells", "parameters": "method as in Jackman et al, 1995c", "conditions": "resistant line, after 24 h; ref Jackman et al, 1995c; cited from earlier work"}, "[8]": {"system": "L5178Y TK-/- mouse lymphoma", "parameters": "method as in Jackman et al, 1991b", "conditions": "single i.p. injection 10 mg kg-1; ref Jackman et al, 1991b; cited from earlier work"}, "[9]": {"experiment": "Mouse pharmacokinetic studies: plasma and tissue levels by radioimmunoassay", "type": "in vivo, female DBA2 mice", "conditions": "female, plasma, ip", "source_text": "as §1"}, "[10]": {"parameters": "method as in Aherme et al, 1996b", "conditions": "ref Aherme et al, 1996b; cited from earlier work"}, "[11]": {"conditions": "mouse, in vivo; cited from earlier work"}},
  "note": "Several values for one entry are separate records, joined by “and”; a condition that tells them apart may be missing. Equal values may be shown once. Entries after “also recorded” stand apart in the source; their conditions may differ.",
  "data": [
    {"molecule": "Cc1nc2ccc(CN(C)c3ccc(C(=O)NC(CCC(=O)NC(CCC(=O)NC(CCC(=O)O)C(=O)O)C(=O)O)C(=O)O)s3)cc2c(=O)[nH]1", "note": "(stereo not shown) [Triglutamate]", "values": [
      {"measurement": "Cross-reaction of S37B14 antiserum (%)", "setting": "[1]", "value": 92, "unit": "%"}
    ]},
    {"molecule": "Cc1nc2ccc(CN(C)c3ccc(C(=O)NC(CCC(=O)NC(CCC(=O)NC(CCC(=O)NC(CCC(=O)NC(CCC(=O)NC(CCC(=O)O)C(=O)O)C(=O)O)C(=O)O)C(=O)O)C(=O)O)C(=O)O)s3)cc2c(=O)[nH]1", "note": "(stereo not shown) [Hexaglutamate]", "values": [
      {"measurement": "Cross-reaction of S37B14 antiserum (%)", "setting": "[1]", "value": 100, "unit": "%"}
    ]},
    {"molecule": "Cc1nc2ccc(CN(C)c3ccc(C(=O)NC(CCC(=O)NC(CCC(=O)O)C(=O)O)C(=O)O)s3)cc2c(=O)[nH]1", "note": "(stereo not shown) [Diglutamate]", "values": [
      {"measurement": "Cross-reaction of S37B14 antiserum (%)", "setting": "[1]", "value": 90, "unit": "%"}
    ]},
    {"molecule": "Cc1nc2ccc(CN(C)c3ccc(C(=O)NC(CCC(=O)NC(CCC(=O)NC(CCC(=O)NC(CCC(=O)O)C(=O)O)C(=O)O)C(=O)O)C(=O)O)s3)cc2c(=O)[nH]1", "note": "(stereo not shown) [Tetraglutamate]", "values": [
      {"measurement": "Ki", "setting": "[2]", "value": 1, "unit": "nM"},
      {"measurement": "Cross-reaction of S37B14 antiserum (%)", "setting": "[1]", "value": 110, "unit": "%"}
    ]},
    {"molecule": "Nc1nc2c(c(=O)[nH]1)N(C=O)C(CNc1ccc(C(=O)N[C@@H](CCC(=O)O)C(=O)O)cc1)CN2", "note": "(stereo partly shown) [Leucovorin]", "values": [
      {"measurement": "Cross-reaction of S37B14 antiserum (%)", "setting": "[1]", "value": "< 0.01", "unit": "%"}
    ]},
    {"molecule": "Cc1nc2ccc(CN(C)c3ccc(C(=O)N[C@@H](CCC(=O)N[C@@H](CCC(=O)N[C@@H](CCC(=O)N[C@@H](CCC(=O)N[C@@H](CCC(=O)O)C(=O)O)C(=O)O)C(=O)O)C(=O)O)C(=O)O)s3)cc2c(=O)[nH]1", "note": "[Pentaglutamate]", "values": [
      {"measurement": "Cross-reaction of S37B14 antiserum (%)", "setting": "[1]", "value": 110, "unit": "%"}
    ]},
    {"molecule": "CN1c2c(nc(N)[nH]c2=O)NCC1CNc1ccc(C(=O)N[C@@H](CCC(=O)O)C(=O)O)cc1", "note": "(stereo partly shown) [Methyl-THFA]", "values": [
      {"measurement": "Cross-reaction of S37B14 antiserum (%)", "setting": "[1]", "value": "< 0.01", "unit": "%"}
    ]},
    {"molecule": "Cc1nc2ccc(CN(C)c3ccc(C(=O)N[C@@H](CCC(=O)O)C(=O)O)s3)cc2c(=O)[nH]1", "note": "[ZD1694, N-[5-[N-(3,4-dihydro-2-methyl-4-oxoquinazolin-6-ylmethyl)-N-methylamino]-2-thenoyl]-L-glutamic acid]", "values": [
      {"measurement": "intracellular concentration of ZD1694 by radioassay", "setting": "L1210 cells", "value": 3.8, "unit": "gM"},
      {"measurement": "anti-tumour effect", "setting": "[3]", "value": "led to anti- tumour activity"},
      {"measurement": "third phase half-life", "setting": "[4]; plasma", "value": 257, "unit": "h"},
      {"measurement": "drug measured in the plasma", "setting": "[4]; up to 4 weeks after drug administration", "value": "1 to 10", "unit": "ng/mL"},
      {"measurement": "concentration at 28 day", "setting": "[5]; Alderley Park Beagle, dog, plasma, iv, 0.2 mg kg-1 single i.v. bolus, 28 days after administration", "value": "~0.4 ng/mL and ~0.85 nM"},
      {"measurement": "gastrointestinal tissue drug concentrations", "setting": "[5]; at 28 days, limit of detection 0.015 nmol g-1", "value": "near to the limit of detection; also recorded: at or near the limit of detection"},
      {"measurement": "radioactivity in the tissues present as polyglutamates", "setting": "[6]; 24 h after tritiated ZD1694 5 mg kg-1", "value": "~80", "unit": "%"},
      {"measurement": "polyglutamates in mouse plasma", "setting": "[6]; tritiated ZD1694", "value": "No polyglutamates were found"},
      {"measurement": "plasma half-life", "setting": "[7]", "value": "~0.5", "unit": "h"},
      {"measurement": "IC50", "setting": "[1]; ZD1694 standard curve, read-out: mean dose at 50% inhibition of binding", "value": 1.47, "unit": "nM"},
      {"measurement": "Cross-reaction of S37B14 antiserum (%)", "setting": "[1]", "value": 100, "unit": "%"},
      {"measurement": "level of total drug ZD1694 estimated by radioassay", "setting": "L1210:RD1694 cells", "value": 0.44, "unit": "gM"},
      {"measurement": "anti-tumour effect", "setting": "[8]", "value": "curative"},
      {"measurement": "concentration at 1 day", "setting": "[9]; DBA2, mouse, single i.p. 1 mg kg-1, day 1", "value": 2.26, "unit": "ng/mL"},
      {"measurement": "concentration at 1 day", "setting": "[9]; DBA2, mouse, single i.p. 10 mg kg-1, day 1", "value": 7.18, "unit": "nM"},
      {"measurement": "concentration at 1 day", "setting": "[9]; DBA2, mouse, single i.p. 100 mg kg-1, day 1", "value": 30.7, "unit": "nM"},
      {"measurement": "concentration at 4 day", "setting": "[9]; DBA2, mouse, single i.p. 100 mg kg-1, day 4", "value": 2.39, "unit": "nM"},
      {"measurement": "half-life", "setting": "[9]; mouse, DBA2 mice, 5 mg kg-1 i.p., non-compartmental model, read-out: plasma elimination phase (half-life) (converted)", "value": "~2.7", "unit": "h"}
    ]},
    {"molecule": "C#CCN(Cc1cc2c(=O)[nH]c(C)nc2cc1C)c1ccc(C(=O)N[C@@H](CCc2nnn[nH]2)C(=O)O)c(F)c1", "note": "[ZD933 1]", "values": [
      {"measurement": "tissue to plasma ratios", "setting": "[10]", "value": "low tissue to plasma ratios"}
    ]},
    {"molecule": "C#CCN(Cc1cc2c(=O)[nH]c(C)nc2cc1C)c1ccc(C(=O)N[C@@H](CCC(=O)N[C@H](CCC(=O)O)C(=O)O)C(=O)O)c(F)c1", "note": "[CB30900]", "values": [
      {"measurement": "liver levels relative to plasma levels", "setting": "[11]", "value": "sixfold higher"}
    ]}
  ]
}
